Measured values reported in patent publication US12564601B2, “Methods for treating hepatitis B infection” (priority 2017, dated 2026).
Read-outs that look alike come from different tables or passages of the source.

Experiments:
HBV = assay: Entecavir combination study in HBV-expressing mouse (HDI model); assay type: in vivo, mice; conditions: for circulating (plasma) HBsAg / hepatic viral RNAs (liver HBV mRNA and pgRNA): HDI model; for circulating (plasma) HBsAg: ELISA; for hepatic viral RNAs (liver HBV mRNA and pgRNA): qPCR
Protocol: The RNAi oligonucletoides targeting the S antigen impact both the viral polymerase and HBsAg protein. In this study, the combinational effects of HBV(s)-219P2 as a monotherapy and combinational treatment with entecavir was explored in an HBV-expressing mouse (HDI model) for antiviral activity.
Mice were administered daily oral dosing of 500 ng/kg Entecavir (ETV) for 14 days. A single subcutaneous administration of HBV(s)-219P2 took place. Circulating viral load (HBV DNA) was measured by qPCR (FIG. 15A), plasma HBsAg level was measured by ELISA (FIG. 15B), and liver HBV mRNA and pgRNA levels were measured by qPCR.

HBsAg = assay: Plasma HBsAg suppression, S- versus X-targeting oligonucleotides, HDI model; assay type: in vivo, mice; conditions: single saturating 9 mg/kg SC dose, n=3
Protocol: In this study, HBV-expressing mice (HDI model) were administered HBV(s)-219P2, GalXC-HBVX (same sequence as the GalXC-HBVX used in FIGS. 12A and 12B), or a combination of the two RNAi oligonucleotides and plasma HBsAg level two weeks or nine weeks post dose were monitored.

HBsAg mRNA = assay: Time course of HBsAg mRNA expression in HDI model of HBV; assay type: in vivo, mouse; conditions: three once-weekly doses of 3 mg/kg
Protocol: The durational effects of the HBV(s)-219P1 oligonucleotide were examined in two different mouse models of HBV—an HDI model, which is cccDNA-dependent, and an AAV model, which is cccDNA independent. A time course (12 weeks) analysis of HBsAg mRNA expression was performed in the context of a treatment involving three once-weekly doses of 3 mg/kg with the HBV(s)-219P1 oligonucleotide targeting HBsAg mRNA compared with vehicle control and an RNAi oligonucleotide targeting HBxAg mRNA in the HDI model of HBV (FIG. 12A).

[1] = test system: HBV Genotype A S ORF reporter sequence; assay: psiCHECK2 dual-luciferase reporter mismatch assay in HeLa cells; assay type: cell-based
From the text: A psiCHECK-2 dual-luciferase reporter system was utilized to evaluate the effects of a mismatch at a selected position in each of HBV-217, HBV-219, HBV-254, HBV-255, and HBV-258. The psiCHECK vector enables monitoring of changes in expression of a target gene fused to a reporter gene, where active RNAi degrades the fusion construct to produce a corresponding decrease in reporter signal. The diagram in FIG. 6 generically depicts the vector utilized in these assays. The parent partial reporter sequence contained 120 base-pair fragments from Genotype A (GenBank: AM282986.1) around target sites of interest in the S ORE. […]
The psiCHECK2 reporter assays with each oligonucleotide were conducted over a three-day period using a 6-point, 5-fold serial dilution starting at 1 nM transfected in HeLa cells. […] The cells were then incubated at 37° C. in a CO2 incubator until the cells were ready to harvest and assay for the target gene. On day 3, 100 μL of Dual-Glo Reagent was added to each well, mixed and incubated for 10 minutes before reading the luminescence. A further 100 μL of Dual-Glo Stop & Glo was added to each well, mixed and incubated for 10 minutes before reading the luminescence. […] The EC50s values determined for each oligonucleotide are shown in Table 3 with additional specifications.

HBsAg viral transcript = assay: HBsAg levels in HDI-mice after subcutaneous HBV-254; assay type: in vivo
Protocol: Preclinical potency was further evaluated in mice following a QW×3 dosing regimen in which HBV-254 was subcutaneously administered at 3 mg/kg (FIG. 3). The administration points are indicated by arrows in the figure. HBsAg levels were monitored in both oligonucleotide treated and untreated control mice for a period spanning 147 days.

Compound: C=C1[C@H](CO)[C@@H](O)C[C@@H]1n1cnc2c(=O)[nH]c(N)nc21 [entecavir, Entecavir]
- mean decrease in HBV DNA in plasma relative to PBS (HBV; 500 ng/kg PO daily for 14 days, n=6): ~1.6 log
- circulating (plasma) HBsAg (HBV): No significant decrease
- circulating (plasma) HBsAg (HBV; listed as ETV): no efficacy
- hepatic viral RNAs (liver HBV mRNA and pgRNA) (HBV): No significant decrease
- hepatic viral RNAs (liver HBV mRNA and pgRNA) (HBV; listed as ETV): no efficacy

Compound: GalXC-HBVX: RNAi oligonucleotide targeting HBxAg mRNA, sense strand SEQ ID NO: 39, antisense strand SEQ ID NO: 40 (sense UGCACUUCGCGUCACCUCUAGCAGCCGAAAGGCUGC; antisense UAGAGGUGACGCGAAGUGCAGG; GalNAc conjugate (GalXC), modification pattern not given here)
- plasma HBsAg suppression 9 weeks post dose / duration (HBsAg): significant recovery of HBsAg
- duration of activity (HBsAg mRNA): shorter duration
- reduction of HBsAg mRNA expression (HBsAg mRNA; 12-week time course): ~3.0 log

Compound: HBV-254: HBsAg-targeting duplex oligonucleotide, sense strand SEQ ID NO: 23, antisense strand SEQ ID NO: 24 (sense GUGGUGGACUUCUCUCAAUAGCAGCCGAAAGGCUGC; antisense UAUUGAGAGAAGUCCACCACGG; listed as RNA, chemistry not given here)
- EC50 ([1]; mismatch duplex, single mismatch to reporter at stated guide position, read-out: MM EC50s): 0.096 nM
- EC50 ([1]; parent duplex, 100% homology to reporter, read-out: Parent EC50s): 0.037 nM
- HBsAg levels relative to control (HBsAg viral transcript; QW×3, 3 mg/kg subcutaneous, monitored 147 days (FIG. 3)): Diminished HBsAg levels persisted in treated mice throughout the entirety of the study
- HBsAg levels (HBsAg viral transcript; single dose evaluation, subcutaneous, HDI-mice (FIG. 2)): systematically reduced HBsAg levels in mice with increasing dosage
